Reference: PubChem BioAssay AID743396 (Broad Institute, 2014)
Active and inactive are the calls of the source.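 The calls were made as follows: active = fitted curve reaches a 40% rise in fluorescent cells at or below the top valid dose; inactive = opposite-direction effect, or the rest.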

Assay: compound fluorescence in GFP channel, mTEFS cells – imaging, mTEFS fibroblasts, cherry-pick, artefact control for X-chromosome reactivation project, dose response (AID 743396);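 also: raw share of Hoechst-counted cells scored GFP positive without control normalization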
Details: mTEFS fibroblasts autofluorescence, GFP-channel imaging, 3 days; at 19.5 µM (top of the series)

Row | Structure (SMILES) | % fluorescent cells increase
1 | Cc1cc(=O)oc2cc3c(cc12)CCCN3 | 0.269% (inactive)

Same assay, conditions: mTEFS fibroblasts autofluorescence, GFP-channel imaging, 3 days; at 19.5 µM (top of the series); cells pretreated with 5-aza-dC

Row | Structure (SMILES) | % fluorescent cells increase
2 | CC=Cc1ccc2n(c1=O)C[C@@H]1[C@@H](CO)[C@H](C(=O)NCCCN(C)C)[C@H]2N1C(=O)c1ccccc1F (mixture of isomers) | 0.025% (inactive)
3 | CN1c2ccc(-c3ccc(C#N)cc3)cc2[C@@H]2[C@@H](CCN2C(=O)NC2CCCCC2)[C@H]1CO | 0.092% (inactive)
4 | NC(=S)Nc1ccc(Cl)cc1Cl | 0.009% (inactive)
5 | Cc1cccc(NCc2ccc(O)c3ncccc23)c1C | 0.074% (inactive)
6 | COc1ccc(CN(C)C[C@H]2OCCCC[C@H](C)Oc3ccc(NC(=O)Nc4ccc(F)cc4)cc3C(=O)N([C@H](C)CO)C[C@H]2C)cc1 | 0.183% (inactive)
7 | CC(=NNc1ccc2ccccc2n1)c1ccccn1 | 15.8% (inactive)
8 | COc1cc(CNc2nc3ccccc3n2C)cc(OC)c1OC | 0% (inactive)
9 | COc1ccc2c3c([nH]c2c1)[C@H](CO)N(C(=O)c1cccnc1)CC31CCN(Cc2ccccc2)CC1 | 0.458% (inactive)
10 | CCOC(=O)C1CCN(C(=O)c2ccc(NS(=O)(=O)c3ccc(F)cc3C)cc2)CC1 | 0% (inactive)
11 | O=C1CSC(c2cccnc2)N1Cc1ccc(Cl)cc1Cl (stereo not drawn) | 0% (inactive)
12 | Cc1c(Nc2cc(Cl)c3nonc3c2[N+](=O)[O-])c(=O)n(-c2ccccc2)n1C | -0.007% (inactive)
13 | O=C(C[C@H]1CC[C@H]2[C@@H](COC[C@@H](O)CN2C(=O)Nc2ccccc2)O1)NCCc1ccncc1 | 0.044% (inactive)
14 | C=C(C)c1cccc(C(C)(C)NC(=O)Nc2nnc(C(C)C)s2)c1 | 0% (inactive)
15 | CCOC(=O)Cc1c(C)[nH]n(-c2ccccc2)c1=O | 0.015% (inactive)
16 | CC(NC(=O)c1ccccc1)C(=O)N/N=C/c1ccccc1 (stereo not drawn) | 0% (inactive)
17 | CCCOc1ccc(C(=O)Nc2ccc(CN3CCOCC3)cc2)cc1 | 0% (inactive)

Row | Structure (SMILES) | % fluorescent cells increase
18 | COc1ccc(NC(=O)Nc2ccc3c(c2)C(=O)N([C@H](C)CO)C[C@H](C)[C@H](CN(C)Cc2ccc4c(c2)OCO4)O3)cc1 | -0.166% (inactive)
19 | CCOC(=O)N1CCN(C(=O)Cn2ccc3c(OC)cccc3c2=O)CC1 | 0.012% (inactive)
20 | Cc1ccccc1NC(=O)c1cn2c(nc3ccccc32)c(C#N)c1C | 2.44% (inactive)
21 | CN(Cc1nccn1C)C(=O)CC1C(=O)NCCN1CC(c1ccccc1)c1ccccc1 (stereo not drawn) | 0.889% (inactive)
22 | C#Cc1cc(N2CCN(C(=O)c3ccoc3)CC2)n2nc(-c3cccc(Cl)c3)cc2n1 | 7.21% (inactive)
23 | O=C(O)c1ccccc1C1Nc2ccccc2C(=O)N1CCCN1CCOCC1 (stereo not drawn) | -0.004% (inactive)
24 | Cc1cccc2sc(N(CCCN(C)C)C(=O)CN3C(=O)c4ccccc4C3=O)nc12 | 0% (inactive)
25 | Cc1ccc(O)c(N=Nc2ccc(S(=O)(=O)N3CCCC3)cc2)c1 | 0% (inactive)
26 | COc1ccc(N2C(=O)C3CCCN3C2c2cccc(OC)c2)cc1 (stereo not drawn) | 0.021% (inactive)
27 | COc1ccc(Nc2nc(N)c(C(=O)c3ccc(F)cc3)s2)cc1 | 0% (inactive)
28 | C[C@H]1CN([C@@H](C)CO)C(=O)c2cc(NC(=O)CCCCCC(=O)Nc3ccccc3N)ccc2O[C@H]1CN(C)C(=O)Nc1ccccc1 | 0.017% (inactive)
29 | O=C(O)c1cccnc1C(=O)N1CCc2c([nH]c3ccccc23)C1C(F)(F)F (stereo not drawn) | 0.447% (inactive)
30 | N/C(=N\c1nc(CSc2nc3ccccc3s2)cc(=O)[nH]1)Nc1ccc(F)cc1 | 2.21% (inactive)
31 | CCc1ccc(C(=O)NNc2ccc(S(N)(=O)=O)cc2)cc1 | -0.004% (inactive)
32 | CC(C)C#Cc1ccc([C@@H]2[C@@H](CO)N3C(=O)CN(C(=O)c4ccc5c(c4)OCO5)C[C@H]23)cc1 | -0.166% (inactive)
33 | CN(Cc1nc(CCc2ccccc2)no1)Cc1cccs1 | 0.295% (inactive)
